# pKd: −log10 of the molar value.
# Molecular target: FABP4 (Homo sapiens, UniProt P15090)
# Experiment: TdF (Temperature Dependence Fluorescence) assay, thermal shift, FABP4
# Assay type: binding
# Text: TdF (Temperature Dependence Fluorescence) Assay for FABP3 and FABP4
# The TdF assay was mainly conducted in the 96-well based CHROMO-4 real time fluorescence plate reader (BioRad). The Sypro Orange (Sigma-Aldrich), environmentally sensitive fluorescence dye, was used to monitor the protein folding-unfolding transition. Protein-ligand binding was gauged by the change (or shift) in the unfolding transition temperature (ΔTm) acquired at protein alone with respect to protein in the presence of ligand of interest.
# The compound of interest was first prepared in DMSO stock (typical concentration: 10 mM). […] Final percentage of DMSO resided in the sample was 2%. The sample plate was heated from 30° C. to 90° C. with thermal ramping rate of 1° C./min. The fluorescence signals were acquired with excitation and emission wavelengths centered at 490 and 560 nm respectively. The instrument thermal stability was ±0.2° C.
# Theoretical basis for TdF-based ligand binding affinity constant
# In brief, the binding constant of the ligand at the Tm is expressed as below:
# [formula] where To is the midpoint of unfolding for unliganded protein and Tm is the midpoint of unfolding in presence of ligand. [LTm] is free ligand at Tm. The ΔHu and ΔCpu are the enthalpy of unfolding and heat capacity change of unfolding for the protein respectively.
# The nonlinear regression fitting in general readily reaches convergence by properly constraining the initial values for the fitting parameters (e.g. the initial “guess” for the ΔHu was constrained to 120 kcal/mol; initial Yn and mn were set to 1 and zero to best represent the melting curve along the low temperature region; negative slope of −0.5 was initially chosen for mu; initial Tm was also constrained to 50° C.).
# [formula] (see Brandts et al and Mayhood et al, shown above) where ΔHL (T) is the van't Hoff enthalpy of ligand binding at temperature T and ΔCpL is the heat capacity upon ligand binding. For simplicity, the ΔCpL and ΔHL (T) were set to zero and −7 kcal/mol respectively. […] TdCD (Temperature-dependent Circular Dichroism) Assay for FABP3/4/5
# Chain of FABP4 (P15090 whole entry, species assumed): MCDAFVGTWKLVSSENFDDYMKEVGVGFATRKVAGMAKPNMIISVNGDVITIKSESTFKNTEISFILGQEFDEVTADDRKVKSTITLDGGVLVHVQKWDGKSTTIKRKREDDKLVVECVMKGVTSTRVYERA
Compound,pKd,FABP4 TdF Kd
Cc1c(Br)cccc1OCc1cc(=O)n2nc(-c3ccccc3)nc2[nH]1 [1-84],,B (0.5 ≦ B < 0.001 μM)
O=c1cc(COc2cccc(OC(F)(F)F)c2)[nH]c2nc(-c3ccccc3)nn12 [1-64],< 6.30,
O=c1cc(CN2CCCC2Cc2ccccn2)[nH]c2nc(-c3ccccc3)nn12 (centres unmarked) [1-139],< 6.30,
O=c1cc(CN2CCC(Cc3ccccc3F)C2)[nH]c2nc(-c3ccccc3)nn12 (centres unmarked) [1-92],< 6.30,
O=c1cc(COc2ccc(I)cc2)[nH]c2nc(-c3ccccc3)nn12 [1-30],< 6.30,
CCC1(OCc2cc(=O)n3nc(-c4ccccc4)nc3[nH]2)CCCCC1 [1-96],< 6.30,
CC(=O)N1CCC(OCc2cc(=O)n3nc(-c4ccccc4)nc3[nH]2)CC1 [1-49],< 6.30,
Cn1ccc(NCc2cc(=O)n3nc(-c4ccccc4)nc3[nH]2)n1 [1-90],< 6.30,
O=c1cc(COc2cccc(Cl)c2Cl)[nH]c2nc(-c3ccccc3)nn12 [1-67],,B (0.5 ≦ B < 0.001 μM)
Cc1cccc2c1OCCN2Cc1cc(=O)n2nc(-c3ccccc3)nc2[nH]1 [1-149],,B (0.5 ≦ B < 0.001 μM)
COc1c(Cl)cccc1OCc1cc(=O)n2nc(-c3ccccc3)nc2[nH]1 [1-55],,B (0.5 ≦ B < 0.001 μM)
CCc1c(Cl)cccc1OCc1cc(=O)n2nc(-c3ccccc3)nc2[nH]1 [21-3],,B (0.5 ≦ B < 0.001 μM)
Cc1nc(-c2ccc(OCc3cc(=O)n4nc(-c5ccccc5)nc4[nH]3)c(F)c2)cs1 [1-34],< 6.30,
CCc1ccc(OCc2[nH]c3ncnn3c(=O)c2F)cc1 [7-2],< 6.30,
Cc1c(Cl)cccc1N(C)C(=O)c1cc(=O)n2nc(-c3ccccc3)nc2[nH]1 [11-4],< 6.30,
Cc1c(Cl)cccc1NCc1cc(=O)n2ncnc2[nH]1 [4-2],< 6.30,

Compound,pKd,FABP4 TdF Kd
CCc1ccc(NCc2cc(=O)n3nc(C4CC4)nc3[nH]2)cc1 [5-9],< 6.30,
CCc1ccc(OCc2cc(=O)n3nc(Cc4ccccc4)nc3[nH]2)cc1 [8-11],< 6.30,
Cc1c(Cl)cccc1NCc1cc(=O)n2nc(-c3ccccc3)cc2[nH]1 [10-2],< 6.30,
Cc1ccc(F)c2ccn(Cc3cc(=O)n4nc(-c5ccccc5)nc4[nH]3)c12 [1-141],< 6.30,
CN(Cc1cc(=O)n2nc(-c3ccccc3)nc2[nH]1)C1Cc2ccccc2C1 [1-54],< 6.30,
O=c1cc(COc2ccccc2)[nH]c2nc(-c3ccccc3)nn12 [1-46],< 6.30,
O=c1cc(CN(c2cccc(Cl)c2)C2CC2)[nH]c2nc(-c3ccccc3)nn12 [17-3],,B (0.5 ≦ B < 0.001 μM)
N#Cc1cc(F)cc(OCc2cc(=O)n3nc(-c4ccccc4)nc3[nH]2)c1 [1-23],< 6.30,
Cc1cc(OCc2cc(=O)n3nc(-c4ccccc4)nc3[nH]2)n(C)n1 [1-37],< 6.30,
O=c1cc(CN2CCOc3ccccc32)[nH]c2nc(-c3ccccc3)nn12 [1-36],< 6.30,
COc1ccc(OCc2cc(=O)n3nc(-c4ccccc4)nc3[nH]2)cc1OC [1-41],< 6.30,
CCc1ccc(OCc2cc(=O)n3nc(CC)nc3[nH]2)cc1 [8-4],< 6.30,
CCc1ccc(NCc2cc(=O)n3nc(-c4ccccc4)cc3[nH]2)cc1 [10-1],< 6.30,
COc1cccc(C)c1OCc1cc(=O)n2nc(-c3ccccc3)nc2[nH]1 [1-58],,B (0.5 ≦ B < 0.001 μM)
O=c1cc(CN2CCCC2Cc2ccncn2)[nH]c2nc(-c3ccccc3)nn12 (centres unmarked) [1-103],< 6.30,

# Next, values leading:
pKd,FABP4 TdF Kd,Compound
≥ 9.00,,"CC(C)(C)c1cc(NC(=O)c2c(Cl)cccc2OCc2cc(=O)n3nc(-c4ccccc4)nc3[nH]2)n(-c2ccc(Cl)cc2)n1 [47-27, N-(3-tert-butyl-1-(4-chlorophenyl)-1H-pyrazol-5-yl)-2-chloro-6-((7-oxo-2-phenyl-4,7-dihydro-[1,2,4]triazolo[1,5-a]pyrimidin-5-yl)methoxy)benzamide]"
,B (0.5 ≦ B < 0.001 μM),O=C(NC1(c2ccccc2F)CC1)C1(OCc2cc(=O)n3nc(-c4ccccc4)nc3[nH]2)CCCCC1 [48-48]
,B (0.5 ≦ B < 0.001 μM),CC1(C(=O)Nc2c(Cl)cccc2OCc2cc(=O)n3nc(-c4ccccc4)nc3[nH]2)CC1 [49-5]
,B (0.5 ≦ B < 0.001 μM),O=C(NCC1(CO)CCCC1)c1ccccc1OCc1cc(=O)n2nc(-c3ccccc3)nc2[nH]1 [47-59]
,B (0.5 ≦ B < 0.001 μM),"Cc1c(Cl)cccc1OC(C)c1cc(=O)n2nc(-c3ccccc3)nc2[nH]1 (single isomer, unassigned) [37-7]"
,B (0.5 ≦ B < 0.001 μM),CN(CC1(c2ccccc2Cl)CC1)C(=O)C1(OCc2cc(=O)n3nc(-c4ccccc4)nc3[nH]2)CCCCC1 [48-42]
,B (0.5 ≦ B < 0.001 μM),"COCC1(CNC(=O)c2c(Cl)cccc2OCc2cc(=O)n3nc(-c4ccccc4)nc3[nH]2)CC1 [47-19, 2-chloro-N-((1-(methoxymethyl)cyclopropyl)methyl)-6-((7-oxo-2-phenyl-4,7-dihydro-[1,2,4]triazolo[1,5-a]pyrimidin-5-yl)methoxy)benzamide]"
< 6.30,,CNCC1(COC(=O)C2(OCc3cc(=O)n4nc(-c5ccccc5)nc4[nH]3)CCCCC2)CCC1 [48-47]
< 6.30,,O=c1nc(SCc2cccc(Cl)c2Cl)[nH]c2nc(-c3ccccc3)nn12 [51-4]
,B (0.5 ≦ B < 0.001 μM),O=C(NCC1(CO)CC1)C1(OCc2cc(=O)n3nc(-c4ccccc4)nc3[nH]2)CCCCC1 [48-54]
,B (0.5 ≦ B < 0.001 μM),COCC1(CNC(=O)C2(OCc3cc(=O)n4nc(-c5ccccc5)nc4[nH]3)CCCCC2)CC1 [48-55]
< 6.30,,Cc1cc(NC(=O)C2(OCc3cc(=O)n4nc(-c5ccccc5)nc4[nH]3)CCCCC2)n(C)n1 [48-35]
,B (0.5 ≦ B < 0.001 μM),C=CCc1ccc(Cl)cc1OCc1cc(=O)n2nc(-c3ccccc3)nc2[nH]1 [42-4]
,B (0.5 ≦ B < 0.001 μM),O=C(NC1(CO)CCCC1)C1(OCc2cc(=O)n3nc(-c4ccccc4)nc3[nH]2)CCCCC1 [48-59]
,B (0.5 ≦ B < 0.001 μM),"Cc1cc(NC(=O)c2c(Cl)cccc2OCc2cc(=O)n3nc(-c4ccccc4)nc3[nH]2)n(C)n1 [47-7, 2-chloro-N-(1,3-dimethyl-1H-pyrazol-5-yl)-6-((7-oxo-2-phenyl-4,7-dihydro-[1,2,4]triazolo[1,5-a]pyrimidin-5-yl)methoxy)benzamide]"
,B (0.5 ≦ B < 0.001 μM),CCN(C(=O)C1(OCc2cc(=O)n3nc(-c4ccccc4)nc3[nH]2)CCCCC1)C1CCCCC1 [48-38]

pKd,FABP4 TdF Kd,Compound
< 6.30,,O=C(N1CCOCC1)C1(OCc2cc(=O)n3nc(-c4ccccc4)nc3[nH]2)CCCCC1 [48-19]
,B (0.5 ≦ B < 0.001 μM),O=C(NC1(CO)CC1)C1(OCc2cc(=O)n3nc(-c4ccccc4)nc3[nH]2)CCCCC1 [48-36]
,B (0.5 ≦ B < 0.001 μM),CN(Cc1cccc(Cl)c1)C(=O)C1(OCc2cc(=O)n3nc(-c4ccccc4)nc3[nH]2)CCCCC1 [48-31]
,B (0.5 ≦ B < 0.001 μM),O=C(NCC1(CO)CCCC1)c1ccccc1OCc1[nH]c2nc(-c3ccccc3)nn2c(=O)c1Cl [24-9]
,B (0.5 ≦ B < 0.001 μM),O=C(NCC1(O)CCOCC1)C1(OCc2cc(=O)n3nc(-c4ccccc4)nc3[nH]2)CCCCC1 [48-61]
,B (0.5 ≦ B < 0.001 μM),O=c1cc(COc2cccc(Cl)c2CO)[nH]c2nc(-c3ccccc3)nn12 [30-2]
,B (0.5 ≦ B < 0.001 μM),O=C(NCC1CC1)c1c(Cl)cccc1OCc1cc(=O)n2nc(-c3ccccc3)nc2[nH]1 [47-3]
,B (0.5 ≦ B < 0.001 μM),O=C(NCC1(c2ccccc2Cl)CC1)c1ccccc1OCc1[nH]c2nc(-c3ccccc3)nn2c(=O)c1Cl [24-8]
,B (0.5 ≦ B < 0.001 μM),"COC[C@H]1CCCN1C(=O)C1(OCc2cc(=O)n3nc(-c4ccccc4)nc3[nH]2)CCCCC1 [48-6, (R)-5-((1-(2-(methoxymethyl)pyrrolidine-1-carbonyl)cyclohexyloxy)methyl)-2-phenyl-[1,2,4]triazolo[1,5-a]pyrimidin-7(4H)-one]"
,B (0.5 ≦ B < 0.001 μM),Nc1cc(C2CC2)n(C(=O)c2c(Cl)cccc2OCc2cc(=O)n3nc(-c4ccccc4)nc3[nH]2)n1 [47-49]
< 6.30,,O=C(NC1CC1)C1(OCc2cc(=O)n3nc(-c4ccccc4)nc3[nH]2)CCCCC1 [48-18]
< 6.30,,O=c1c(Cl)c(CN2CCCC2Cc2cccc(Cl)c2)[nH]c2nc(-c3ccccc3)nn12 (centres unmarked) [24-5]
,B (0.5 ≦ B < 0.001 μM),Cn1nc(C2CC2)cc1NC(=O)c1c(Cl)cccc1OCc1cc(=O)n2nc(-c3ccccc3)nc2[nH]1 [47-11]
,B (0.5 ≦ B < 0.001 μM),O=C(NC1(CO)CCCCC1)c1c(Cl)cccc1OCc1cc(=O)n2nc(-c3ccccc3)nc2[nH]1 [47-14]
,B (0.5 ≦ B < 0.001 μM),"O=C(NCC1(O)CCOCC1)c1c(Cl)cccc1OCc1cc(=O)n2nc(-c3ccccc3)nc2[nH]1 [47-25, 2-chloro-N-((4-hydroxytetrahydro-2H-pyran-4-yl)methyl)-6-((7-oxo-2-phenyl-4,7-dihydro-[1,2,4]triazolo[1,5-a]pyrimidin-5-yl)methoxy)benzamide]"
